Measurements reported in PubChem BioAssay (NCI).
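Growth conditions: 96-well plates. Treatment: test compound, 48 hours, 5 concentrations. Analysis: linear interpolation between bracketing concentrations; unreached endpoints set to highest concentration. TGI is the concentration that stops growth completely.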

Columns and labels:
Test in all cases: inhibition of tumour cell growth, NCI panel, 48 h
HCC-2998 colon = test system: HCC-2998 colon
SNB-19 CNS = test system: SNB-19 CNS
UO-31 renal = test system: UO-31 renal
SK-MEL-28 melanoma = test system: SK-MEL-28 melanoma
SK-OV-3 ovarian = test system: SK-OV-3 ovarian
UACC-257 melanoma = test system: UACC-257 melanoma
OVCAR-3 ovarian = test system: OVCAR-3 ovarian
TK-10 renal = test system: TK-10 renal
NCI-H460 lung = test system: NCI-H460 lung
IGROV1 ovarian = test system: IGROV1 ovarian
A549 NSCLC = test system: A549 NSCLC
SF-268 CNS = test system: SF-268 CNS
M14 melanoma = test system: M14 melanoma
HT29 colon = test system: HT29 colon
MDA-N = test system: MDA-N
HS 578T breast = test system: HS 578T breast
BT-549 breast = test system: BT-549 breast

## N#C/C(c1nc2ccccc2[nH]1)=c1\s/c(=C/c2ccccc2)c(=O)n1-c1ccccc1
HCC-2998 colon
  TGI: > 100 µM
SNB-19 CNS
  TGI: > 100 µM
UO-31 renal
  TGI: > 100 µM
SK-MEL-28 melanoma
  TGI: > 100 µM
SK-OV-3 ovarian
  TGI: > 100 µM
UACC-257 melanoma
  TGI: > 100 µM
OVCAR-3 ovarian
  TGI: > 100 µM
TK-10 renal
  TGI: > 100 µM
NCI-H460 lung
  TGI: > 100 µM
IGROV1 ovarian
  TGI: > 100 µM
A549 NSCLC
  TGI: > 100 µM
SF-268 CNS
  TGI: > 100 µM
M14 melanoma
  TGI: > 100 µM

## COc1cc(/C=C2\CCC(C)C3=C2N=c2s/c(=C/c4ccc(Cl)cc4)c(=O)n2C3c2cc(OC)c(OC)c(OC)c2)cc(OC)c1OC (configuration not stated)
HT29 colon
  TGI: > 100 µM
MDA-N
  TGI: > 100 µM
SNB-19 CNS
  TGI: > 100 µM
UO-31 renal
  TGI: > 100 µM
SK-MEL-28 melanoma
  TGI: > 100 µM
SK-OV-3 ovarian
  TGI: > 100 µM
UACC-257 melanoma
  TGI: > 100 µM
TK-10 renal
  TGI: > 100 µM
IGROV1 ovarian
  TGI: > 100 µM
A549 NSCLC
  TGI: > 100 µM
SF-268 CNS
  TGI: > 100 µM
HS 578T breast
  TGI: > 100 µM
M14 melanoma
  TGI: > 100 µM

## Cc1cc(Cl)ccc1NC(=O)/C(=N\NC(C)(C)C)C(C#N)c1nc(-c2ccc([N+](=O)[O-])cc2)cs1 (configuration not stated)
HCC-2998 colon
  TGI: > 100 µM
HT29 colon
  TGI: > 100 µM
SNB-19 CNS
  TGI: > 100 µM
UO-31 renal
  TGI: > 100 µM
SK-MEL-28 melanoma
  TGI: > 100 µM
SK-OV-3 ovarian
  TGI: > 100 µM
UACC-257 melanoma
  TGI: > 100 µM
OVCAR-3 ovarian
  TGI: > 100 µM
TK-10 renal
  TGI: > 100 µM
NCI-H460 lung
  TGI: > 100 µM
IGROV1 ovarian
  TGI: > 100 µM
A549 NSCLC
  TGI: > 100 µM
SF-268 CNS
  TGI: > 100 µM
M14 melanoma
  TGI: > 100 µM

## N#CC(NNC(=O)Cc1ccccc1)c1ccc([N+](=O)[O-])cc1 (configuration not stated)
HT29 colon
  TGI: > 100 µM
UO-31 renal
  TGI: > 100 µM
SK-MEL-28 melanoma
  TGI: > 100 µM
SK-OV-3 ovarian
  TGI: > 100 µM
UACC-257 melanoma
  TGI: > 100 µM
TK-10 renal
  TGI: > 100 µM
NCI-H460 lung
  TGI: > 100 µM
IGROV1 ovarian
  TGI: > 100 µM
A549 NSCLC
  TGI: > 100 µM
SF-268 CNS
  TGI: > 100 µM
M14 melanoma
  TGI: > 100 µM

## CC(=O)NC(CCCCNCc1ccccc1)C(=O)NCc1ccccc1 (configuration not stated)
HCC-2998 colon
  TGI: > 100 µM
HT29 colon
  TGI: > 100 µM
SNB-19 CNS
  TGI: > 100 µM
UO-31 renal
  TGI: > 100 µM
SK-MEL-28 melanoma
  TGI: > 100 µM
SK-OV-3 ovarian
  TGI: > 100 µM
UACC-257 melanoma
  TGI: > 100 µM
OVCAR-3 ovarian
  TGI: > 100 µM
TK-10 renal
  TGI: > 100 µM
NCI-H460 lung
  TGI: > 100 µM
IGROV1 ovarian
  TGI: > 100 µM
A549 NSCLC
  TGI: > 100 µM
SF-268 CNS
  TGI: > 100 µM
M14 melanoma
  TGI: > 100 µM

## O=S(Cc1ccccc1)c1ccccc1Cn1cccc1 (configuration not stated)
HCC-2998 colon
  TGI: > 100 µM
HT29 colon
  TGI: > 100 µM
SNB-19 CNS
  TGI: > 100 µM
UO-31 renal
  TGI: > 100 µM
SK-MEL-28 melanoma
  TGI: > 100 µM
SK-OV-3 ovarian
  TGI: > 100 µM
UACC-257 melanoma
  TGI: > 100 µM
OVCAR-3 ovarian
  TGI: > 100 µM
TK-10 renal
  TGI: > 100 µM
NCI-H460 lung
  TGI: > 100 µM
IGROV1 ovarian
  TGI: > 100 µM
A549 NSCLC
  TGI: > 100 µM
BT-549 breast
  TGI: > 100 µM
SF-268 CNS
  TGI: > 100 µM
HS 578T breast
  TGI: > 100 µM
M14 melanoma
  TGI: > 100 µM

## O=C1C(Cl)C(c2ccccc2Cl)N1n1cnc2ccccc2c1=O (configuration not stated)
HCC-2998 colon
  TGI: > 100 µM
HT29 colon
  TGI: > 100 µM
SNB-19 CNS
  TGI: > 100 µM
UO-31 renal
  TGI: 73.2 µM
SK-MEL-28 melanoma
  TGI: > 100 µM
SK-OV-3 ovarian
  TGI: 72.5 µM
UACC-257 melanoma
  TGI: > 100 µM
OVCAR-3 ovarian
  TGI: > 100 µM
TK-10 renal
  TGI: > 100 µM
NCI-H460 lung
  TGI: > 100 µM
IGROV1 ovarian
  TGI: > 100 µM
A549 NSCLC
  TGI: > 100 µM
SF-268 CNS
  TGI: > 100 µM
M14 melanoma
  TGI: > 100 µM

## O=C1/C(=C/c2ccccc2Cl)COc2ccc(Br)cc21
HCC-2998 colon
  TGI: > 100 µM
HT29 colon
  TGI: > 100 µM
UO-31 renal
  TGI: > 100 µM
SK-MEL-28 melanoma
  TGI: > 100 µM
SK-OV-3 ovarian
  TGI: 85 µM
UACC-257 melanoma
  TGI: > 100 µM
OVCAR-3 ovarian
  TGI: > 100 µM
TK-10 renal
  TGI: > 100 µM
NCI-H460 lung
  TGI: > 100 µM
IGROV1 ovarian
  TGI: > 100 µM
A549 NSCLC
  TGI: > 100 µM
SF-268 CNS
  TGI: > 100 µM
